Laboratory results reported in patent US5354758A, “Benzomorphans useful as NMDA receptor antagonists” (priority 1992, dated 1994).
Like-named read-outs stand apart in the source and are kept apart here.

How the values were obtained:
[1] = molecular target: T1, σ-site of opioid receptor (Cavia porcellus, UniProt Q60492); experiment: In vitro binding, inhibition of [^3 H]PPP binding to guinea pig brain homogenate; design: species or system Hartley guinea pig; details: for Ki: guinea pig brain homogenate, 0.6 nM [^3 H]PPP, 25° C., 1 hour
T1 construct: Hartley guinea pigs were decapitated, and the brains were removed and homogenized; from tissue; host or cells: Hartley guinea pig brain homogenate (washed membranes)
T1 sequence (Q60492 whole entry): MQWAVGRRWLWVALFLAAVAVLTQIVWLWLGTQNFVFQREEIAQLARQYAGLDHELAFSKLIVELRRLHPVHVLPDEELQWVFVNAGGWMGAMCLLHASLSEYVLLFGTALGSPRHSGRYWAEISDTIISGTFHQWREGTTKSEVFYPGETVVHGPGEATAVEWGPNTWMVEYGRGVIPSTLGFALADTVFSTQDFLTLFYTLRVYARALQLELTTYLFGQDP
Method: (§1) As described below, the compounds of the invention were tested for their ability to inhibit binding of radiolabeled versions of these known ligands.
Hartley guinea pigs were decapitated, and the brains were removed and homogenized in 20 volumes of 50 mM Tris-HCl using a Polytron homogenizer. The homogenate was centrifuged at 27,000×G for 15 minutes, and the pellet was resuspended in 50 mM Tris-HCl. The centrifugation procedure was repeated twice. The pellet was diluted to approximately 8 mg wet tissue/assay. Various concentrations of the test compounds (100 μL) and [^3 H]PPP (100 μL, final concentration 0.6 nM) were incubated with 1.8 mL of the tissue homogenate at 25° C. for 1 hour. Unlabeled PPP (final concentration 10 μM) was added to some tubes to determine nonspecific binding. The reaction was stopped by filtration through GF/B filters using a Brandel Cell Harvester. After washing twice with […] of ice cold Tris-HCl, the filters were suspended in 5 mL of scintillation fluid, and the radioactivity was counted after standing at room temperature overnight.
Table 1 summarizes the results of the in vitro binding studies using these three radioligands at the NMDA receptor site, μ-site and σ-site of opioid receptor, respectively.

[2] = system: NMDA-induced lethality; experiment: In vivo protection in the mouse against NMDA-induced lethality; design: species or system Swiss-Webster mouse; details: ip, 30 minutes before 200 mg/kg NMDA, eight mice per dose, Litchfield and Wilcoxin; for ED50: Mus musculus
Method: (§2) According to the method described by Ferkany et al. (1988), the test compounds were administered ip to four male Swiss-Webster mice (26-34 g) each, following 30 minutes later, 200 mg/kg of NMDA was administered to the mice each. […] Those compounds that protected three or more of the mice at any of the doses were evaluated further by determining the ED50 values using three or more doses with the eight mice per dose. The ED50 was estimated by the method of Litchfield and Wilcoxin (1949). Water-soluble compounds were dissolved in distilled water and administered in a volume of 10 ml/kg. Water-insoluble compounds were suspended in an aqueous solution of 0.5% methyl cellulose and administered in a volume of 20 ml/kg.

[3] = molecular target: NMDA receptor site; experiment: In vitro binding, inhibition of [^3 H]MK-801 binding to rat forebrain synaptic membranes; design: species or system Sprague-Dawley rat; details: 3 nM [^3 H]MK-801, 50 μM glycine and glutamate, 37° C., 2 hours, read-out: Ki [^3 H]MK801
Method: as §1
Semipurified synaptic membranes were prepared according to the method of Bristow et al. (1986) with minor modifications. Sprague-Dawley rats were decapitated and the forebrains were removed, weighed, and homogenized in 20 volumes of 0.32M sucrose. The homogenate was centrifuged at 121×G for 10 min. The resulting supernatant was recentrifuged at 27,000×G for 15 min. The pellet was resuspended in 20 volumes of distilled water and this suspension was centrifuged at 8,000×G for 10 min. Both the supernatant and the buffy coat layer, removed with 2 mL of 5 mM Tris-Cl (pH 7.8), were pooled and centrifuged at 27,000×G for 15 min. The supernatant was removed, the pellet was covered with a small amount of 5 mM Tris-Cl, and the sample was frozen for at least 18 hrs at -20° C. Membranes were then washed four times in 5 mM Tris-Cl and finally resuspended in 25 mL. This preparation was used for the binding assay immediately or frozen for subsequent use.
The incubation was terminated by rapid filtration (Brandel Cell Harvester) over Whatman GF/B filters, which were then washed twice with 5 mL of 5 mM Tris-HCl. Radioactivity trapped on the filters was counted in 5 mL Scintiverse II at 50% efficiency in 7 mL minivials after standing at room temperature overnight.

[4] = molecular target: T2, μ-site of opioid receptor (Rattus norvegicus, UniProt P33535); experiment: In vitro binding, inhibition of [^3 H]DAGO binding to rat forebrain synaptic membranes; design: species or system Sprague-Dawley rat
T2 construct: Semipurified synaptic membranes were prepared according to the method of Toll et al. (1984); from tissue; host or cells: adult male Sprague-Dawley rat forebrain membranes
T2 sequence (P33535 whole entry): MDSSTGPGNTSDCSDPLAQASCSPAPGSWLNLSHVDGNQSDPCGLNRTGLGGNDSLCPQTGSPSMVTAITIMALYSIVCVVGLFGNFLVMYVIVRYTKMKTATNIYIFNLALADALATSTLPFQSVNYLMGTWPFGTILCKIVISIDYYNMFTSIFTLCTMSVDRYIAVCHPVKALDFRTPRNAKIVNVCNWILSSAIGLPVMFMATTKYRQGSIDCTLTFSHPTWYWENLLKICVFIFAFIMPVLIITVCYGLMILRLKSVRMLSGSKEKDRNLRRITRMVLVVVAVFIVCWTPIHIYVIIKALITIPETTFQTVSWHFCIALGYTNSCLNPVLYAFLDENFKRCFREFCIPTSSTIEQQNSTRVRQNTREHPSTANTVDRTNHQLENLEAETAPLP
Method: as §1
Semipurified synaptic membranes were prepared according to the method of Toll et al. (1984). Adult male Sprague-Dawley rats were decapitated, and the forebrains were removed, weighed, and homogenized in 20 volumes of […] Tris-HCl, pH 7.7. The homogenate was centrifuged at 27,000×G for 15 minutes, and the resulting pellet was resuspended in buffer and recentrifuged twice. The washed membranes were resuspended in buffer to obtain a membrane concentration of 7.2 mg brain weight/mL; the final concentration in each assay tube was 12.2 mg/2 mL. […] The reaction was stopped by filtration through GF/B filters using a Brandel Cell Harvester. After washing twice with 5 mL of ice cold buffer, the filters were suspended in 5 mL scintillation fluid, and the radioactivity was counted after standing at room temperature overnight.

[5] = system: NMDA receptor site; details: shown previously; cited from earlier work
[6] = system: mice; experiment: Lethality of NMDA in mice; type: in vivo, Swiss-Webster mouse; details: NMDA at 200 mg/kg
Method: as §2

[7] = system: σ-site of opioid receptor; details: shown previously; cited from earlier work
[8] = Ki [^3 H]DAGO, 2 nM [^3 H]DAGO, 25° C., 1 hour

| Structure (SMILES) | Ki ([1]; read-out: Ki [^3 H]PPP) [µM] | Mouse ED50 [2] [mg/kg] | Ki [3] [µM] | Ki [4, 8] [µM] | ED50 [2] [mg/kg] | also measured |
| --- | --- | --- | --- | --- | --- | --- |
| CC(C1CC1)N1CC[C@]2(C)c3ccccc3C[C@H]1[C@H]2C (single isomer, unassigned; (+)) [(+)-IIId-7 (Isomer B)] | 0.071 | 13.7 | 1.99 | 6.58 |  |  |
| C[C@]12N[C@H](Cc3ccccc31)c1ccccc12 [MK-801] |  |  |  |  |  | high-affinity ligand at the NMDA receptor site [5]: high-affinity |
| CC(C1CO1)N1CC[C@]2(C)c3ccccc3C[C@H]1[C@H]2C (single isomer, unassigned; (+)) [(+)-BZ-5] | 0.011 |  | 11.6 | 5.8 |  |  |
| CC(C1CO1)N1CC[C@]2(C)c3ccccc3C[C@H]1[C@H]2C (mixture of isomers) [(+)-BZ-5 (Mixture of Isomer B and C), (1S,5S,9S)-(+)-5,9-Dimethyl-2-(1-methyl-2,3-epoxypropyl)-6,7-benzomorphan] | 0.042 |  |  | 12.4 | 32.5 |  |
| C#CC(C)N1CC[C@]2(C)c3ccccc3C[C@H]1[C@H]2C (single isomer, unassigned; (+)) [(+)-BZ-6 (Isomer B)] | 1.1 | 18.8 | 2.55 | 9 |  |  |
| C=CC(C1CC1)N1CC[C@]2(C)c3ccccc3C[C@H]1[C@H]2C (single isomer, unassigned; (+)) [(+)-BZ-4] | 0.13 |  | 11.5 | 20.2 | 24.1 |  |
| C[C@@H]1[C@@H]2Cc3ccccc3[C@@]1(C)CCN2C(C)(C)C [(+)-BZ-15A, (1S,5S,9S)-(+)-2-Tert-butyl-5,9-dimethyl-6,7-benzomorphan] | 0.98 |  | 2.59 | 7.29 | 10.7 |  |
| C[C@@H]1[C@@H]2Cc3ccccc3[C@@]1(C)CCN2N(C)C [(+)-BZ-18, (1S,5S,9S)-(+)-5,9-dimethyl-2-dimethylamino-6,7-benzomorphan] | 0.81 |  | 4.54 |  | 14.4 |  |
| CC(C)N1CC[C@]2(C)c3cc(F)ccc3C[C@H]1[C@H]2C [(+)-BZ-13, (1S,5S,9S)-(+)-2'-Fluoro-2-isopropyl-5,9-dimethyl-6,7-benzomorphan] | 0.26 |  | 4.15 | 20.2 | 9 |  |
| CC(C1CC1)N1CC[C@]2(C)c3ccccc3C[C@H]1[C@H]2C (single isomer, unassigned; (+)) [(+)-IIId-7 (Isomer A)] | 0.02 | 6.8 | 0.75 | 3.05 |  |  |
| CN[C@H](CC(=O)O)C(=O)O [NMDA, N-methyl-D-aspartate] |  |  |  |  |  | mice died [6]: approximately 90% |
| C[C@@H]1[C@@H]2Cc3ccccc3[C@@]1(C)CCN2O [(+)-BZ-17A, (1S,5S,9S)-(+)-2-hydroxy-5,9-dimethyl-6,7-benzomorphan] | 25.9 |  | 43 | 21.9 | 21.6 |  |
| CC(C)N1CC[C@]2(C)c3ccccc3C[C@H]1[C@H]2C [(+)-IIId-6, (1S,5S,9S)-(+)-2-Isopropyl-5,9-dimethyl-6,7-benzomorphan] | 0.56 |  | 3.51 | 18.9 | 17.3 |  |
| COc1ccc2c(c1)[C@]13CCCC[C@@H]1[C@H](C2)N(C)CC3 [Dextromethorphan, reference compound] |  |  |  | 1.74 | 39 | Ki ([1]; Ki [^3 H]PPP): 0.15 µM |
| CC(C1CCC1)N1CC[C@]2(C)c3ccccc3C[C@H]1[C@H]2C (single isomer, unassigned; (+)) [(+)-BZ-3 (Isomer B)] | 0.0081 | > 60 | 3.61 | 13.5 |  |  |
| CC(C1CO1)N1CC[C@]2(C)c3ccccc3C[C@H]1[C@H]2C (single isomer, unassigned; (+)) [(+)-BZ-5 (Isomer A)] | 0.04 |  | 29.2 | 9.74 |  |  |
| C=CC(C)N1CC[C@]2(C)c3ccccc3C[C@H]1[C@H]2C (single isomer, unassigned; (+)) [(+)-BZ-2] | 0.1 |  | 1.32 | 9.58 | 22.1 |  |
| CC(C1CC1)N1CC[C@]2(C)c3cc(F)ccc3C[C@H]1[C@H]2C (single isomer, unassigned; (+)) [(+)-BZ-14 (Isomer A)] | 0.014 | 6.1 | 0.85 | 0.72 |  |  |
| C#CC(C)N1CC[C@]2(C)c3ccccc3C[C@H]1[C@H]2C (single isomer, unassigned; (+)) [(+)-BZ-6 (Isomer A)] | 19.2 | > 50 | 16.6 | 12.3 |  |  |
| CN1CC[C@@]23CCCC[C@@H]2[C@@H]1Cc1ccc(O)cc13 [Dextrorphan, reference compound] |  | 34.6 |  | 2.2 |  |  |
| CC(C)N1CC[C@]2(C)c3cc(Cl)ccc3C[C@H]1[C@H]2C [(+)-BZ-26, (1S,5S,9S)-(+)-2'-Chloro-2-isopropyl-5,9-dimethyl-6,7-benzomorphan] | 0.074 |  | 12.8 | 11.8 | 12.2 |  |
| C[C@@H]1[C@@H]2Cc3ccccc3[C@@]1(C)CCN2C(C1CC1)C1CC1 [(+)-BZ-1, (1S,5S,9S)-(+)-2-Dicyclopropylmethyl-5,9-dimethyl-6,7-benzomorphan] | 0.16 |  | 14 | 11.5 | 33.1 |  |
| CC(C1CCC1)N1CC[C@]2(C)c3ccccc3C[C@H]1[C@H]2C (single isomer, unassigned; (+)) [(+)-BZ-3 (Isomer A)] | 0.0012 | 16.4 | 0.22 | 11.8 |  |  |
| CCCN1CCCC(c2cccc(O)c2)C1 (stereo not shown) [PPP, reference compound] |  |  |  |  |  | high-affinity ligand at the σ site of the opioid receptor [7]: high-affinity; Kd [1]: 0.02 µM |
| CC(C1CC1)N1CC[C@]2(C)c3cc(F)ccc3C[C@H]1[C@H]2C (single isomer, unassigned; (+)) [(+)-BZ-14 (Isomer B)] | 0.062 | 13 | 3.53 |  |  | Ki ([4]; read-out: Ki [^3 H]DAGO, 2 nM [^3 H]DAGO, 25° C., 1 hour): 5.01 µM |
